Results taken from ChEMBL document CHEMBL1770059, “Identification of chemicals to inhibit the kinase activity of leucine-rich repeat kinase 2 (LRRK2), a Parkinson's disease-associated protein” (Bioorg Med Chem Lett, 2011).

Key:
[1] = target: T1, Mitogen-activated protein kinase kinase kinase 7 (Homo sapiens) (UniProt O43318); experiment: Inhibition of TAK1 assessed as residual activity of enzyme at 25 uM
T1 sequence (whole entry): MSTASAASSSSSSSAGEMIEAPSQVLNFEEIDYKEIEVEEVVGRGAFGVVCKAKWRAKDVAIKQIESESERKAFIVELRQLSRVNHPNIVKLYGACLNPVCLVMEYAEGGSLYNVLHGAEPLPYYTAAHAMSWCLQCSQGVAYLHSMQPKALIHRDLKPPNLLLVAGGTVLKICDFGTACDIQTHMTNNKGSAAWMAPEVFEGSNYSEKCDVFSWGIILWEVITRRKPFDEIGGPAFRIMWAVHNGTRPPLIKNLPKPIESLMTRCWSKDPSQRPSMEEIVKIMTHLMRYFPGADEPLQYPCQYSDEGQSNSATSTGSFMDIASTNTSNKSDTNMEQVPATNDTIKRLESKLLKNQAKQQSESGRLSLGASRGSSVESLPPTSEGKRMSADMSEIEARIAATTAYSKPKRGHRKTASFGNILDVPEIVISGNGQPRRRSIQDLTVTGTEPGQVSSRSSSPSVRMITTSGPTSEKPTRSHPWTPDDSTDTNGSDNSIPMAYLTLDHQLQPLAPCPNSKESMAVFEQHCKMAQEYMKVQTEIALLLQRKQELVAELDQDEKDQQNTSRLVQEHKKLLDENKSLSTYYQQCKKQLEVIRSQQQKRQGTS

[2] = target: T2, Mitogen-activated protein kinase kinase kinase 5 (Homo sapiens) (UniProt Q99683); experiment: Inhibition of ASK1 assessed as residual activity of enzyme at 25 uM
T2 sequence (whole entry): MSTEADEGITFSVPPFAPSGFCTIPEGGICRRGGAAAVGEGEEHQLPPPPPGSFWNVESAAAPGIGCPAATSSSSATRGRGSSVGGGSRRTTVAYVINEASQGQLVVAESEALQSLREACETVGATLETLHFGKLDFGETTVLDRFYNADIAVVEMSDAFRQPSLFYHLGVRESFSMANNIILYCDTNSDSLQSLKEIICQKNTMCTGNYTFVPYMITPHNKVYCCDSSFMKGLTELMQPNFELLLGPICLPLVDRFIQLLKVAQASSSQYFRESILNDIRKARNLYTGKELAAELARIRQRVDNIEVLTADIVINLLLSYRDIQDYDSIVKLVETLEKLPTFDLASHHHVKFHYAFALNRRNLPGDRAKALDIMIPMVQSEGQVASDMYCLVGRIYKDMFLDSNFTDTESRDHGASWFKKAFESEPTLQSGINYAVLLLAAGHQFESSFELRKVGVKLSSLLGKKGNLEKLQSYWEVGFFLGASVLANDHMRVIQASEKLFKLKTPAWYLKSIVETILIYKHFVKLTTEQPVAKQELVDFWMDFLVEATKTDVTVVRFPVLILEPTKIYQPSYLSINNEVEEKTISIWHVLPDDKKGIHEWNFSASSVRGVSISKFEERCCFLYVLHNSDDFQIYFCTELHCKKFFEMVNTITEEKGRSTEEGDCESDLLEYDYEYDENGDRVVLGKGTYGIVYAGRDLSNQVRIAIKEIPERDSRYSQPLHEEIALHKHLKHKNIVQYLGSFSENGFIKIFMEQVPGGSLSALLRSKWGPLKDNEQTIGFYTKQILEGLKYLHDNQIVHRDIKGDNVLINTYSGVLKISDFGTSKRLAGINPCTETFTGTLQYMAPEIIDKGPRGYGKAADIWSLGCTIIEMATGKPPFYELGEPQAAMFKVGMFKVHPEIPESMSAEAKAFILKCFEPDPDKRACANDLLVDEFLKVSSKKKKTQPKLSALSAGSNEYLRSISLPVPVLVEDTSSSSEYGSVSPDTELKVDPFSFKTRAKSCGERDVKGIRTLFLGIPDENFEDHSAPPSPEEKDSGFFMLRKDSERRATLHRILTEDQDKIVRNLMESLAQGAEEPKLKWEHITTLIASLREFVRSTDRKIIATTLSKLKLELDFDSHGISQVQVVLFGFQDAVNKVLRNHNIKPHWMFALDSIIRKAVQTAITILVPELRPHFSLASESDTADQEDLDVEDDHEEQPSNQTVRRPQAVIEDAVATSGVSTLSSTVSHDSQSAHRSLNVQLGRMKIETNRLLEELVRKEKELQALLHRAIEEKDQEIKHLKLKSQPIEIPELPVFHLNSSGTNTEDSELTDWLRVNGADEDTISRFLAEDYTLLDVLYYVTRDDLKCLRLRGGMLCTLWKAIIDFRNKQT

[3] = target: T3, Serine/threonine-protein kinase TAO3 (Homo sapiens) (UniProt Q9H2K8); experiment: Inhibition of TAO3 assessed as residual activity of enzyme at 10 uM
T3 sequence (whole entry): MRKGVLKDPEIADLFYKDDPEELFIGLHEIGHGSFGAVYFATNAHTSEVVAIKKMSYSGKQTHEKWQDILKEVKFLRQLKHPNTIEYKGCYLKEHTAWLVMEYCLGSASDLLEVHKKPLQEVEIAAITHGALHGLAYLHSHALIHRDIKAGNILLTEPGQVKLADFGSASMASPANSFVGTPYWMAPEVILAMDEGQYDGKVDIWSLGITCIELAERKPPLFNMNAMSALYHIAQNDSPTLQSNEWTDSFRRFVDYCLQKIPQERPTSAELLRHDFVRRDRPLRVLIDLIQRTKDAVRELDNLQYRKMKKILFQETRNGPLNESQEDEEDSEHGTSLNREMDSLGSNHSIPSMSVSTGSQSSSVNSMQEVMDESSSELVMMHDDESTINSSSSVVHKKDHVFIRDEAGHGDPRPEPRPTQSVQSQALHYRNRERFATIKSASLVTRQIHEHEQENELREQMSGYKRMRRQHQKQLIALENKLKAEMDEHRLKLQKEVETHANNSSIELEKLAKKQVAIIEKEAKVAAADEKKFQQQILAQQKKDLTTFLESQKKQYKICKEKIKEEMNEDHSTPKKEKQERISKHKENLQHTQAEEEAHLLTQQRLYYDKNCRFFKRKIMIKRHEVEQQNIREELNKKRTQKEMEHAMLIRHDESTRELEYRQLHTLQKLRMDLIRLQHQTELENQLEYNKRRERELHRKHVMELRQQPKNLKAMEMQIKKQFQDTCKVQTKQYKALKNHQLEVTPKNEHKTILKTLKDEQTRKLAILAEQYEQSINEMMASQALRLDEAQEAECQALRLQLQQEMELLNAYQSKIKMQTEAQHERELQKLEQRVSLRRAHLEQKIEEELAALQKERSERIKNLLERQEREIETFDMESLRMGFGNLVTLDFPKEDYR

[4] = target: Mitogen-activated protein kinase kinase kinase 9 (Homo sapiens) (UniProt P80192); experiment: Inhibition of MLK1 assessed as residual activity of enzyme at 10 uM
Chain of Mitogen-activated protein kinase kinase kinase 9 (Homo sapiens) (P80192 whole entry, looked up): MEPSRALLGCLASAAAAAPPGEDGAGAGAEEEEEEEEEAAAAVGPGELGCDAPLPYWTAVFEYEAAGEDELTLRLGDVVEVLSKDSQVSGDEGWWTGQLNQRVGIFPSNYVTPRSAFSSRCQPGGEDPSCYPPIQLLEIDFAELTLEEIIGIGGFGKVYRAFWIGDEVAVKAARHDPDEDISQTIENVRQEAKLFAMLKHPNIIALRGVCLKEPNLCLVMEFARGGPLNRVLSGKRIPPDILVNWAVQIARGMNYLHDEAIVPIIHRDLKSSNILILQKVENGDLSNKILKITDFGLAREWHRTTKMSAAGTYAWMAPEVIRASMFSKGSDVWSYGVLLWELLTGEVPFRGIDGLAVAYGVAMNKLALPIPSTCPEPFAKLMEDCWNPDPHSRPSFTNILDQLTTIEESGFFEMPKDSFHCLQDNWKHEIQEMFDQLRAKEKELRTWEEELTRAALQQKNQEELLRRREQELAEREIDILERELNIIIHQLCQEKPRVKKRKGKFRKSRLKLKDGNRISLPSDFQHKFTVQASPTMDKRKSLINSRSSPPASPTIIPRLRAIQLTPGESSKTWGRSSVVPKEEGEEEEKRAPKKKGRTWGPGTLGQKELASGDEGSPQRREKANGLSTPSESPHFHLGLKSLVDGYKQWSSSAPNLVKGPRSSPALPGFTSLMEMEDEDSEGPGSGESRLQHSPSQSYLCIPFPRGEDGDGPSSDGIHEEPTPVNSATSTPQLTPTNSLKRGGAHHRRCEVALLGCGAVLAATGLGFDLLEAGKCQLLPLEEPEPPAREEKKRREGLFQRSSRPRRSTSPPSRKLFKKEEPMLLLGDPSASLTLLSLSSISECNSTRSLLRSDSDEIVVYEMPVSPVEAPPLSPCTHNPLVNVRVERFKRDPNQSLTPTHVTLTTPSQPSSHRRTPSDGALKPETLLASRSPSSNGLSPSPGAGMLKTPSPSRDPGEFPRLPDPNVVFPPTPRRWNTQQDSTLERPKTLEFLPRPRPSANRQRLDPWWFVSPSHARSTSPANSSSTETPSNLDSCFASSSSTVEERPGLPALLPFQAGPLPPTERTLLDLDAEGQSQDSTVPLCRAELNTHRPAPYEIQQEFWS

- Activity [1]: 48%
- Activity [2]: 68%
- Activity [3]: 97%
- Activity [4]: 20%
Compound: Cc1cc(N/N=C/c2ccncc2)nc2ccccc12
